Laboratory results reported in ChEMBL document CHEMBL1201862, “PubChem BioAssay data set” (2004).
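Tested at 5 concentrations; 48 h exposure; 96-well plates; endpoints linearly interpolated, else capped at highest concentration. The concentration for 50% growth inhibition is given as GI50.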 Calls of active or inactive are those of the source. Cut-off read from the data, not from the text of the source: active = GI50 up to about 1.1 µM and inactive = higher.

Legend:
Experiment in all cases: inhibition of tumour cell growth, NCI panel, 48 h
786-0 = tested on: 786-0
A549 = tested on: A549
ACHN = tested on: ACHN
CCRF-CEM = tested on: CCRF-CEM
COLO 205 = tested on: COLO 205
DLD-1 = tested on: DLD-1
DMS-114 = tested on: DMS-114
DMS-273 = tested on: DMS-273
EKVX = tested on: EKVX
HCT-116 = tested on: HCT-116
HCT-15 = tested on: HCT-15
HL-60 = tested on: HL-60
HOP-18 = tested on: HOP-18
HOP-62 = tested on: HOP-62
HT-29 = tested on: HT-29
IGROV-1 = tested on: IGROV-1
K562 = tested on: K562
KM12 = tested on: KM12
LOX IMVI = tested on: LOX IMVI
M14 = tested on: M14
M19-MEL = tested on: M19-MEL
MOLT-4 = tested on: MOLT-4
Malme-3M = tested on: Malme-3M
NCI-H226 = tested on: NCI-H226
NCI-H23 = tested on: NCI-H23
NCI-H460 = tested on: NCI-H460
NCI-H522 = tested on: NCI-H522
OVCAR-3 = tested on: OVCAR-3
OVCAR-8 = tested on: OVCAR-8
RPMI-8226 = tested on: RPMI-8226
RXF 393 = tested on: RXF 393
SF-295 = tested on: SF-295
SF-539 = tested on: SF-539
SK-MEL-28 = tested on: SK-MEL-28
SK-MEL-5 = tested on: SK-MEL-5
SK-OV-3 = tested on: SK-OV-3
SN12C = tested on: SN12C
SNB-19 = tested on: SNB-19
SNB-75 = tested on: SNB-75
SW-620 = tested on: SW-620
TK-10 = tested on: TK-10
U-251 = tested on: U-251
UACC-257 = tested on: UACC-257
UACC-62 = tested on: UACC-62
UO-31 = tested on: UO-31
XF498 = tested on: XF498
HCC 2998 = tested on: HCC 2998
KM-20L2 = tested on: KM-20L2
LXFL 529 = tested on: LXFL 529
OVCAR-4 = tested on: OVCAR-4
SF-268 = tested on: SF-268
SK-MEL-2 = tested on: SK-MEL-2
SNB-78 = tested on: SNB-78
SR = tested on: SR
CAKI-1 = tested on: CAKI-1
HOP-92 = tested on: HOP-92
OVCAR-5 = tested on: OVCAR-5

Measured: GI50

CC(=O)OC1CC2Oc3ccc(C)cc3C(C)(O2)C1=O (stereo not drawn)
inactive: 786-0 > 100 µM | A549 > 100 µM | ACHN > 100 µM | CCRF-CEM > 100 µM | COLO 205 > 100 µM | DLD-1 > 100 µM | DMS-114 > 100 µM | DMS-273 > 100 µM | EKVX > 100 µM | HCT-116 > 100 µM | HL-60 > 100 µM | HOP-18 > 100 µM | HOP-62 > 100 µM | HT-29 > 100 µM | IGROV-1 > 100 µM | K562 > 100 µM | KM12 > 100 µM | LOX IMVI > 100 µM | M14 > 100 µM | M19-MEL > 100 µM | MOLT-4 > 100 µM | Malme-3M > 100 µM | NCI-H226 > 100 µM | NCI-H23 > 100 µM | NCI-H460 > 100 µM | NCI-H522 > 100 µM | OVCAR-3 > 100 µM | OVCAR-8 > 100 µM | RPMI-8226 > 100 µM | RXF 393 > 100 µM | SF-295 > 100 µM | SF-539 > 100 µM | SK-MEL-28 > 100 µM | SK-MEL-5 > 100 µM | SK-OV-3 > 100 µM | SN12C > 100 µM | SNB-19 > 100 µM | SNB-75 51.1 µM | SW-620 > 100 µM | TK-10 > 100 µM | U-251 > 100 µM | UACC-257 > 100 µM | UACC-62 > 100 µM | UO-31 > 100 µM | XF498 76 µM
> 100 µM: HCT-15

CC(=O)NC1=C(NCCO)C(=O)c2ccccc2C1=O
inactive: 786-0 > 50 µM | A549 > 50 µM | ACHN > 50 µM | CCRF-CEM 42.6 µM | COLO 205 > 50 µM | DLD-1 > 50 µM | DMS-273 > 50 µM | EKVX > 50 µM | HCC 2998 > 50 µM | HCT-116 30.1 µM | HL-60 20.8 µM | HOP-62 > 50 µM | HT-29 > 50 µM | IGROV-1 > 50 µM | K562 > 50 µM | KM-20L2 24.2 µM | KM12 > 50 µM | LOX IMVI > 50 µM | LXFL 529 > 50 µM | M14 > 50 µM | M19-MEL 9.79 µM | MOLT-4 > 50 µM | Malme-3M 12.8 µM | NCI-H226 > 50 µM | NCI-H23 > 50 µM | NCI-H460 > 50 µM | NCI-H522 24.5 µM | OVCAR-3 18.9 µM | OVCAR-4 > 50 µM | OVCAR-8 > 50 µM | RXF 393 > 50 µM | SF-268 > 50 µM | SF-295 > 50 µM | SF-539 > 50 µM | SK-MEL-28 > 50 µM | SK-MEL-2 > 50 µM | SK-MEL-5 29.9 µM | SK-OV-3 > 50 µM | SN12C > 50 µM | SNB-19 > 50 µM | SNB-75 > 50 µM | SNB-78 > 50 µM | SR > 50 µM | SW-620 > 50 µM | TK-10 > 50 µM | U-251 > 50 µM | UACC-257 > 50 µM | UACC-62 > 50 µM | UO-31 > 50 µM | XF498 > 50 µM
> 50 µM: HCT-15

CCOC(=O)C(=O)Nc1ccccc1OCC
inactive: 786-0 > 100 µM | A549 > 100 µM | ACHN > 100 µM | CAKI-1 > 100 µM | CCRF-CEM > 100 µM | DLD-1 > 100 µM | DMS-114 > 100 µM | EKVX > 100 µM | HCC 2998 > 100 µM | HCT-116 > 100 µM | HL-60 > 100 µM | HOP-18 > 100 µM | HOP-62 > 100 µM | HOP-92 > 100 µM | HT-29 > 100 µM | IGROV-1 > 100 µM | K562 > 100 µM | KM12 > 100 µM | LOX IMVI > 100 µM | LXFL 529 > 100 µM | M14 > 100 µM | M19-MEL > 100 µM | MOLT-4 > 100 µM | Malme-3M > 100 µM | NCI-H226 > 100 µM | NCI-H23 > 100 µM | NCI-H460 > 100 µM | NCI-H522 > 100 µM | OVCAR-3 > 100 µM | OVCAR-4 > 100 µM | OVCAR-5 > 100 µM | OVCAR-8 > 100 µM | RPMI-8226 > 100 µM | RXF 393 > 100 µM | SF-268 > 100 µM | SF-295 > 100 µM | SF-539 > 100 µM | SK-MEL-28 > 100 µM | SK-MEL-2 > 100 µM | SK-MEL-5 > 100 µM | SK-OV-3 > 100 µM | SN12C > 100 µM | SNB-19 > 100 µM | SNB-78 > 100 µM | SW-620 > 100 µM | TK-10 > 100 µM | U-251 > 100 µM | UACC-257 > 100 µM | UACC-62 > 100 µM | UO-31 92.9 µM | XF498 > 100 µM
